Data on five molecules can be found in patent publication US20250320193A1, “OXOISOINDOLINYL SUBSTITUTED PIPERIDINEDIONE DERIVATIVE AND USE THEREOF” (GLUETACS THERAPEUTICS (SHANGHAI) CO., LTD., priority 2022, published 2025).

The target in assay [1] is human Cereblon WT GST-tagged protein (Homo sapiens (Human), UniProt Q96SW2). As to the kind of experiment: CRBN-binding affinity, HTRF (CEREBLON BINDING kit, CISBIO). The following applies: HTRF inhibitory activity. The method, boiled down:
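HTRF competition format: test compound displaces Thalidomide-Red from GST-tagged human Cereblon WT, detected with a Eu-labelled anti-GST antibody. Percent CRBN binding inhibition was derived from the 620 nm signal, normalized to solvent-control and protein-free blank wells.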

Another assay addresses IKZF3 (Homo sapiens (Human), UniProt Q96SW2+Q9UKT9). The experiment in a line: Western blot, substrate protein expression in hPBMC: IKZF3. Type of assay: cell-based. The conditions noted are these: hPBMC, compound 500 nM, 24 hours, Western blot. Put shortly: (§1)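 hPBMC, 1×10^6 cells/mL, 24 h compound exposure; RIPA lysis, BCA protein assay, SDS-PAGE, NC membrane immunoblot. Densitometry vs internal control → % protein remaining; degradation % = 100% − remaining; DC50 = conc. at 50% of DMSO band signal.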
On the technique in general: In western blotting, separated proteins are transferred to a membrane and probed.

The subject of assay [2] is TMD8 cells (human diffuse large B-cell lymphoma cells). As to the kind of experiment: Tumor cell proliferation inhibition, CCK-8. The assay is classed as cell-based. The following applies: TMD8 cells, CCK-8, read-out: inhibitory activity (IC50, nM) TMD8. Put shortly: (§2)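 STR-authenticated, mycoplasma-free cells cultured at 37° C with 5% CO2. Compound added 24 h post-seeding, 10 μM top, 5-fold × 10. Viability by CCK-8; IC50 from inhibition curve.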

Assay [3] deals with MM.1R cells (dexamethasone-resistant human multiple myeloma cells). As to the kind of experiment: Tumor cell proliferation inhibition, CCK-8. The assay is classed as cell-based. The conditions noted are these: MM.1R cells, CCK-8, read-out: inhibitory activity (IC50, nM) MM.1R. Put shortly: as §2
The subject of assay [4] is CCRF-CEM (human acute lymphoblastic leukemia T-cells). As to the kind of experiment: Tumor cell proliferation inhibition, CCK-8. The following applies: CCRF-CEM cells, CCK-8, read-out: inhibitory activity (IC50, nM) CCRF-CEM. Type of assay: cell-based. The method, boiled down: as §2
Assay [5] deals with Jurkat cells (human T-cell leukemia cells). As to the kind of experiment: Tumor cell proliferation inhibition, CCK-8. The assay is classed as cell-based. The following applies: Jurkat cells, CCK-8, read-out: inhibitory activity (IC50, nM) Jurkat. The method, boiled down: as §2
The test system of assay [6] is Kasumi-1 (human acute myeloid leukemia cells). The experiment in a line: Tumor cell proliferation inhibition, CCK-8. The conditions noted are these: Kasumi-1 cells, CCK-8, read-out: inhibitory activity (IC50, nM) Kasumi-1. Type of assay: cell-based. The method, boiled down:
as §2

The test system of assay [7] is MDA-MB-231 cells (human breast adenocarcinoma cells). The experiment in a line: Tumor cell proliferation inhibition, CCK-8. Type of assay: cell-based. The following applies: MDA-MB-231 cells, CCK-8, read-out: inhibitory activity (IC50, nM) MDA-MB-231. Put shortly: as §2
The subject of assay [8] is CAL-62 (human thyroid carcinoma cells). As to the kind of experiment: Tumor cell proliferation inhibition, CCK-8. The assay is classed as cell-based. The conditions noted are these: CAL-62 cells, CCK-8, read-out: inhibitory activity (IC50, nM) CAL-62. Put shortly: as §2
Assay [9] deals with MM.1S cells (human multiple myeloma cells). The experiment in a line: Tumor cell proliferation inhibition, CCK-8. The conditions noted are these: MM1.S, MM.1S cells, CCK-8, read-out: inhibitory activity (IC50, nM) MM.1S. Type of assay: cell-based. The method, boiled down: as §2
Assay [10] concerns H146 cells (human small cell lung carcinoma cells). As to the kind of experiment: Tumor cell proliferation inhibition, CCK-8. Type of assay: cell-based. The following applies: NCI-H146, H146 cells, CCK-8, read-out: inhibitory activity (IC50, nM) H146. Put shortly:
as §2

The target of another assay is GSPT1 (Homo sapiens (Human), UniProt P15170+Q96SW2). As to the kind of experiment: Western blot, substrate protein expression in hPBMC: GSPT1. The assay is classed as cell-based. The conditions noted are these: hPBMC, compound 500 nM, 24 hours, Western blot. Put shortly:
as §1

The target in a further assay is IKZF1 (Homo sapiens (Human), UniProt Q13422+Q96SW2). As to the kind of experiment: Western blot, substrate protein expression in hPBMC: IKZF1. Type of assay: cell-based. The conditions noted are these: hPBMC, compound 500 nM, 24 hours, Western blot. The method, boiled down: as §1

Broadly, the IC50 is the point on the concentration scale where inhibition reaches its midpoint.

Sequence of IKZF1 (Q13422 whole entry): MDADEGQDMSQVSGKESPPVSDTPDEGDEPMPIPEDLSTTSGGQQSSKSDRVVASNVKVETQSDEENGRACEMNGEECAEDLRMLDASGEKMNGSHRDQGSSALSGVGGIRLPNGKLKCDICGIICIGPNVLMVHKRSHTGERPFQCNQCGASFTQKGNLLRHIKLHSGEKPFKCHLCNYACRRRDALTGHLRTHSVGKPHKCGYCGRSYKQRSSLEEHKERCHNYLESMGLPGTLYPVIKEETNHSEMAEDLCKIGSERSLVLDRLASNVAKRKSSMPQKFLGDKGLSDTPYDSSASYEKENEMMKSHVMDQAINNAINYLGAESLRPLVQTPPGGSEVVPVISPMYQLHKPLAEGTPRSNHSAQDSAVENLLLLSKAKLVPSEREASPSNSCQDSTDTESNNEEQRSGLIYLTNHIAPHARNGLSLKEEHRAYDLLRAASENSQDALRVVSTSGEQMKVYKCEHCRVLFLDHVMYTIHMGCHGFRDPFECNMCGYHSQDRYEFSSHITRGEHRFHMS
Sequence of IKZF1 (Q96SW2 whole entry): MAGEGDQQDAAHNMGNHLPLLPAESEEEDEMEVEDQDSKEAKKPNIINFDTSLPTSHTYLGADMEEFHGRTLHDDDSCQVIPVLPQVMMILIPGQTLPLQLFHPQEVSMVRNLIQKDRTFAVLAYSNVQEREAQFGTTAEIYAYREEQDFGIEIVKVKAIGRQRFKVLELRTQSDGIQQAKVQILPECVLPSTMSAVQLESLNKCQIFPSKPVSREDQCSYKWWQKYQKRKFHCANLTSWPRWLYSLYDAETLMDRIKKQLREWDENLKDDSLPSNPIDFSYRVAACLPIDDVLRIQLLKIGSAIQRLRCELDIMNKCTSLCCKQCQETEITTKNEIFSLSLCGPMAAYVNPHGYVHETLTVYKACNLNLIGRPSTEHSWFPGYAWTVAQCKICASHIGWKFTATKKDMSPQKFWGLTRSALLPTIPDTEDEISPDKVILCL
Sequence of IKZF1 (Q16531 whole entry partner): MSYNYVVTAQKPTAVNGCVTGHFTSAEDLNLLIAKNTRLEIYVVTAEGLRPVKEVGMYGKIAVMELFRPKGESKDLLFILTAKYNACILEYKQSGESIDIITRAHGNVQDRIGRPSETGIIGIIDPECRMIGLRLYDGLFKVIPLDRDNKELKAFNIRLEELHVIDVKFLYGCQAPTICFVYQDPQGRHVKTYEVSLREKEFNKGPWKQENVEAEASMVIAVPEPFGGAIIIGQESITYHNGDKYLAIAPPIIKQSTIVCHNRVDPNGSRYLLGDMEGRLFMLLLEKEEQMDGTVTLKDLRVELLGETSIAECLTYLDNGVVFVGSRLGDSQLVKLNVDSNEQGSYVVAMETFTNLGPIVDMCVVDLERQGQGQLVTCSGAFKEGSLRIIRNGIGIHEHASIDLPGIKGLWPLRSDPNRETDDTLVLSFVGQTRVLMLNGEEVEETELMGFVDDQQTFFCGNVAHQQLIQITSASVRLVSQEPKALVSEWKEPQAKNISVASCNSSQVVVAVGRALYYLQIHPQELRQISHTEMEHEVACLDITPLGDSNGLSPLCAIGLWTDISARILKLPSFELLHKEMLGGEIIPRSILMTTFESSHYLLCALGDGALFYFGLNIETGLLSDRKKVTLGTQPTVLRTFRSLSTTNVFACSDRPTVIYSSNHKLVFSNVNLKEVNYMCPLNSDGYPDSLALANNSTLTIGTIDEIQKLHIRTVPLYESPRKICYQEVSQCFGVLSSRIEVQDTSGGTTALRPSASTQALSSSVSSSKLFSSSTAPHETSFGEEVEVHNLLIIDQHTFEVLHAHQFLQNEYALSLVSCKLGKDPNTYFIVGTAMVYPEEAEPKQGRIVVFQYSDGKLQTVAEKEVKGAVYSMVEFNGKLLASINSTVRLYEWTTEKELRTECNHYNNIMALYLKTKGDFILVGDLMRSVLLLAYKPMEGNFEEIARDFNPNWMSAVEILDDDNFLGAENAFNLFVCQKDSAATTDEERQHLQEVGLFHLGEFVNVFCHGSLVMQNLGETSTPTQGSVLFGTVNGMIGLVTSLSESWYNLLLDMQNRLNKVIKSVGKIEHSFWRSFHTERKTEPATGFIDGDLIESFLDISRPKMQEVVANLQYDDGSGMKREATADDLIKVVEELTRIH
Sequence of IKZF3 (Q9UKT9 whole entry): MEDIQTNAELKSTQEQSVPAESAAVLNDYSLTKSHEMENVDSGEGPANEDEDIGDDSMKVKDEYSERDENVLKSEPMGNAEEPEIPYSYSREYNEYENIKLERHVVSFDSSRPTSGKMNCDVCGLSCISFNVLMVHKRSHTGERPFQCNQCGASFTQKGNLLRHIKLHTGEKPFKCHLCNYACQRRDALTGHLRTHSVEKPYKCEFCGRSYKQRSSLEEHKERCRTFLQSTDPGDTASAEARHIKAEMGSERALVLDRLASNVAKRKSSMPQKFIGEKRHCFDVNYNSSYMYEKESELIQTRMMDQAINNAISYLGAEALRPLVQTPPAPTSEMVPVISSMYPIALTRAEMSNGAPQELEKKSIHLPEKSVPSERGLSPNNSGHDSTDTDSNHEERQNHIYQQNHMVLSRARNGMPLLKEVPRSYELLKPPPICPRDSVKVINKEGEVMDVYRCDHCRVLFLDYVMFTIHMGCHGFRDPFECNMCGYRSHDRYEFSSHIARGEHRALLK
Sequence of IKZF3 (Q96SW2 whole entry): as the sequence (Q96SW2 whole entry) above
Sequence of IKZF3 (Q16531 whole entry partner): as the sequence (Q16531 whole entry partner) above
Sequence of GSPT1 (P15170 whole entry): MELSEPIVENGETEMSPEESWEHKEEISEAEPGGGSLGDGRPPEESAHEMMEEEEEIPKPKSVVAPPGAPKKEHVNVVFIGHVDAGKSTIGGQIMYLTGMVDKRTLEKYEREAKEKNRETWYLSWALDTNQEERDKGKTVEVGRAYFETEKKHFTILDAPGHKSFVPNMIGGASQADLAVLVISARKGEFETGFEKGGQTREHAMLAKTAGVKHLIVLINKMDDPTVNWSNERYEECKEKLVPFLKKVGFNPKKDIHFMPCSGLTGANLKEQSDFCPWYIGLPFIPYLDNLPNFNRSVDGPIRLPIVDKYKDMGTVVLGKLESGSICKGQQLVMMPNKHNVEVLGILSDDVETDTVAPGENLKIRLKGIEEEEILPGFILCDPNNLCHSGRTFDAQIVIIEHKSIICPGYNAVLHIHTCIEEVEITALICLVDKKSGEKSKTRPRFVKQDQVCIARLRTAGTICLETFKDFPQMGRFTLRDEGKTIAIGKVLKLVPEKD
Sequence of GSPT1 (Q96SW2 whole entry): as the sequence (Q96SW2 whole entry) above
Sequence of GSPT1 (Q16531 whole entry partner): as the sequence (Q16531 whole entry partner) above
Sequence of human Cereblon WT GST-tagged protein (Q96SW2 whole entry): as the sequence (Q96SW2 whole entry) above

As to `O=C1CCC(N2Cc3cc(CN4CCN(C(c5cccc(F)c5)c5cccc(F)c5)CC4)ccc3C2=O)C(=O)N1` (centres unmarked) [GT-03702, 3-(5-((4-(bis(3-fluorophenyl)methyl)piperazin-1-yl)methyl)-1-oxoisoindolin-2-yl)piperidine-2,6-dione], the half-maximal inhibitory concentration (IC50) is less than 500 nM in assay [1]; 10 to 50 nM in assay [2]; 1 to 10 nM in assay [3]; less than 1 nM in [4]; 1 to 10 nM in assay [5]; 1 to 10 nM in assay [6]. In addition, the concentration for half-maximal inhibition (IC50) in [7] was 1 to 10 nM; in assay [8] it was less than 1 nM; in assay [9] it was less than 1 nM; in assay [10] it was 10 to 50 nM. Further, the “substrate protein remaining % IKZF3” value at IKZF3 was “A (A represents 0% ≤ substrate protein remaining % ≤ 50%)”. Moreover, the “substrate protein remaining % GSPT1” value on GSPT1 is reported as “A (A represents 0% ≤ substrate protein remaining % ≤ 50%)”. Moreover, on IKZF1, the “substrate protein remaining % IKZF1” value is on record as “A (A represents 0% ≤ substrate protein remaining % ≤ 50%)”.
Turning to `O=C1CCC(N2Cc3c(ccc(CN4CCN(C(c5cccc(F)c5)c5cccc(F)c5)CC4)c3F)C2=O)C(=O)N1` (centres unmarked) [GT-03703, 3-(5-((4-(bis(3-fluorophenyl)methyl)piperazin-1-yl)methyl)-4-fluoro-1-oxoisoindolin-2-yl)piperidine-2,6-dione], the IC50 in assay [1] was less than 500 nM; in [2], 10 to 50 nM; in assay [3], 1 to 10 nM; in assay [4], less than 1 nM; in assay [5], 1 to 10 nM; in [6], 1 to 10 nM. Further, the concentration for half-maximal inhibition (IC50) is 1 to 10 nM in [7], 1 to 10 nM in [8], 1 to 10 nM in assay [9] and 10 to 50 nM in [10]. Moreover, on IKZF3, the “substrate protein remaining % IKZF3” value is “A (A represents 0% ≤ substrate protein remaining % ≤ 50%)”. On GSPT1, the “substrate protein remaining % GSPT1” value is “A (A represents 0% ≤ substrate protein remaining % ≤ 50%)”. For the same molecule, the “substrate protein remaining % IKZF1” value on IKZF1 is recorded as “A (A represents 0% ≤ substrate protein remaining % ≤ 50%)”.
`O=C1CCC(N2Cc3c(ccc(CN4CCN(C(c5ccccc5)c5ccccn5)CC4)c3F)C2=O)C(=O)N1` (centres unmarked) [GT-03832, 3-(4-fluoro-1-oxo-5-((4-(phenyl(pyridin-2-yl)methyl)piperazin-1-yl)methyl)isoindolin-2-yl)piperidine-2,6-dione]: the 50% inhibitory concentration (IC50) lay within 500 to 1000 nM in assay [1]; 100 to 500 nM in assay [2]; 1 to 10 nM in assay [3]; 1 to 10 nM in [4]; 1 to 10 nM in [5]; 10 to 50 nM in [6]. Further, the IC50 in assay [7] fell in the range of 10 to 50 nM; in [8], 1 to 10 nM; in assay [9], 1 to 10 nM; in [10] it was 50 to 100 nM. Besides, the “substrate protein remaining % IKZF3” value at IKZF3 is “A (A represents 0% ≤ substrate protein remaining % ≤ 50%)”. In addition, on GSPT1, the “substrate protein remaining % GSPT1” value is recorded as “A (A represents 0% ≤ substrate protein remaining % ≤ 50%)”. For the same molecule, the “substrate protein remaining % IKZF1” value on IKZF1 is “B (B represents substrate protein remaining % > 50%)”.
Regarding `O=C1CCC(N2Cc3cc(CN4CCN(C(c5ccccc5)c5ccccn5)CC4)c(F)cc3C2=O)C(=O)N1` (centres unmarked) [GT-03833, 3-(6-fluoro-1-oxo-5-((4-(phenyl(pyridin-2-yl)methyl)piperazin-1-yl)methyl)isoindolin-2-yl)piperidine-2,6-dione], the concentration for half-maximal inhibition (IC50) in [1] is 1000 to 1900 nM; in assay [2] it was 10 to 50 nM; in assay [3] it was 1 to 10 nM; in assay [4], less than 1 nM; in assay [5] it was 1 to 10 nM; in assay [6], 1 to 10 nM. Moreover, the IC50 is 10 to 50 nM in [7], 1 to 10 nM in assay [8], 1 to 10 nM in assay [9] and 10 to 50 nM in [10]. The “substrate protein remaining % IKZF3” value at IKZF3 was “A (A represents 0% ≤ substrate protein remaining % ≤ 50%)”. Moreover, the “substrate protein remaining % GSPT1” value on GSPT1 is reported as “A (A represents 0% ≤ substrate protein remaining % ≤ 50%)”. Also, on IKZF1, the “substrate protein remaining % IKZF1” value is “B (B represents substrate protein remaining % > 50%)”.
As to `O=C1CCC(N2Cc3cc(CN4CCN(C(c5ccccc5)c5ccccn5)CC4)ccc3C2=O)C(=O)N1` (centres unmarked) [GT-03835, 3-(1-oxo-5-((4-(phenyl(pyridin-2-yl)methyl)piperazin-1-yl)methyl)isoindolin-2-yl)piperidine-2,6-dione], the IC50 was 500 to 1000 nM in assay [1]; 100 to 500 nM in assay [2]; 1 to 10 nM in assay [3]; 1 to 10 nM in assay [4]; 1 to 10 nM in assay [5]; 1 to 10 nM in [6]. For the same molecule, the IC50 in assay [7] was 10 to 50 nM; in [8] it was 1 to 10 nM; in [9], 1 to 10 nM; in [10] it was 50 to 100 nM. The “substrate protein remaining % IKZF3” value at IKZF3 is “A (A represents 0% ≤ substrate protein remaining % ≤ 50%)”. Moreover, at GSPT1, the “substrate protein remaining % GSPT1” value is “A (A represents 0% ≤ substrate protein remaining % ≤ 50%)”. For the same molecule, at IKZF1, the “substrate protein remaining % IKZF1” value is given as “A (A represents 0% ≤ substrate protein remaining % ≤ 50%)”.
